Data set [1] can be described thus: Concentrations of 1 in mouse serum and tissue samples by LC-MS/MS. Format: in vivo, C57BL/6 mice.
Data set [2] is classed as in vivo, C57BL/6 mice. The note with it: 24 mg/kg subcutaneous; for Concentration in the mouse brain: N = 3; for Concentration observed in brain, in molar terms: mouse brain, the quantified mouse (4a 8 h, 4d 2 h).
The target in data set [3] is T1, Calpain I from porcine erythrocytes (Sus scrofa, UniProt P35750).
T1 sequence (P35750 1-714): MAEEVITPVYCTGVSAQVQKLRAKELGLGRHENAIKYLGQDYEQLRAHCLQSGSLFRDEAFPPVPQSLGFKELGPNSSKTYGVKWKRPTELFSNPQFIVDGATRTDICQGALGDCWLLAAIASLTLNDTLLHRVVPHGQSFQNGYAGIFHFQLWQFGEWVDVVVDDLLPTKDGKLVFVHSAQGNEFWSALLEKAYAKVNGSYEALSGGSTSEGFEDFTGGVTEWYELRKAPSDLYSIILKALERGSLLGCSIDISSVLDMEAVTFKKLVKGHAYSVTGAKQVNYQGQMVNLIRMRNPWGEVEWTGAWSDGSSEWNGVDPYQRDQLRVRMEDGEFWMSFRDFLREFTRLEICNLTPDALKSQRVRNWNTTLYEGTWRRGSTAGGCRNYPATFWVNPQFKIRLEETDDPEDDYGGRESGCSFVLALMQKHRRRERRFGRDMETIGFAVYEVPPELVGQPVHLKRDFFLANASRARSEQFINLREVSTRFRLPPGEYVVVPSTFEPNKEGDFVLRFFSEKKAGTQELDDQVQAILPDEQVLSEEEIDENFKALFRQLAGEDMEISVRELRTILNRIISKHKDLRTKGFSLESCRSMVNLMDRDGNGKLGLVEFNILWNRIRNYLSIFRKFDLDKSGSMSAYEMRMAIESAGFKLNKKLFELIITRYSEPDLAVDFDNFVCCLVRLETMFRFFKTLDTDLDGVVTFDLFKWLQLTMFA
T1 sequence (P04574 1-266 partner): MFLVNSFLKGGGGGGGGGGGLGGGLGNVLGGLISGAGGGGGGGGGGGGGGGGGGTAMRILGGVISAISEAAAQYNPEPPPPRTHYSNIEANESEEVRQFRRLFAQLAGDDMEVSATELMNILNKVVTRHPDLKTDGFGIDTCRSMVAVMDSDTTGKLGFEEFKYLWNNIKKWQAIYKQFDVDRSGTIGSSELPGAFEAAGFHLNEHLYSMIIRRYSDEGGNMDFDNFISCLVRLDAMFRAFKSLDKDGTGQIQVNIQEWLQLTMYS
The experiment in a line: Calpain I inhibition, fluorogenic Suc-Leu-Tyr-AMC assay, Ki by Dixon plots.

Data set [4] addresses T2, calpain II from porcine kidney (Sus scrofa, UniProt A6YNL5).
T2 sequence (A6YNL5 20-700): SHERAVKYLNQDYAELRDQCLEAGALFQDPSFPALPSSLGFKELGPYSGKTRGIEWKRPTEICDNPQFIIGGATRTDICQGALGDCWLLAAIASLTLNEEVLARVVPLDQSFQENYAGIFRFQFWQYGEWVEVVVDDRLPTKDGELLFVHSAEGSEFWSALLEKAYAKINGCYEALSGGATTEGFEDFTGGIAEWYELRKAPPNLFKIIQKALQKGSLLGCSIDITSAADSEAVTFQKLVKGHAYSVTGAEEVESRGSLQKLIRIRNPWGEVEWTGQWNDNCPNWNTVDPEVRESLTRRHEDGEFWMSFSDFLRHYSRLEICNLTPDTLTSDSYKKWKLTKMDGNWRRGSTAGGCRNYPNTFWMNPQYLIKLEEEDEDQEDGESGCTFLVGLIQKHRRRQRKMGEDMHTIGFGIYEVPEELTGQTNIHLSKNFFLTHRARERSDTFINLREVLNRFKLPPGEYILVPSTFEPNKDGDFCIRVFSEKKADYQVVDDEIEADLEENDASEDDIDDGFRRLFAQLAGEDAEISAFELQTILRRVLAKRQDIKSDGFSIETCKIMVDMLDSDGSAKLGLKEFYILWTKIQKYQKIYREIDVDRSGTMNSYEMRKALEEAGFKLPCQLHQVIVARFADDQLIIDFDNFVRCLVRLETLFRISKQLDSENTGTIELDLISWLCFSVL
T2 sequence (P04574 1-266 partner): T1 sequence (P04574 1-266 partner)
The data set is described as follows: Calpain II inhibition, fluorogenic Suc-Leu-Tyr-AMC assay, Ki by Dixon plots. Format: biochemical. The note with it: selectivity calpain I over calpain II.

The target of data set [5] is Cathepsin B from human liver (Homo sapiens, UniProt P07858). The data set is described as follows: Cathepsin B inhibition, fluorogenic Cbz-Arg-Arg-AMC assay, Ki by Dixon plots. Format: biochemical.

Read-outs that look alike come from different tables or passages of the source. Marks after values point to notes of the source that are not given here.

For the compound `CCC(NC(=O)[C@H](CC(C)C)NC(=O)OCc1ccccc1)C(=O)C(=O)NCCCN1CCOCC1` (stereo partly drawn) [Compound 1, Cbz-Leu-D,L-Abu-CONH-(CH2)3-morpholine], in data set [1] (female, C57BL/6, mouse, liver, heart, kidney, spleen, other: subcutaneous or intravenous, 24 mg/kg), the concentration at 1 h is > 500 ng/g. Moreover, the “Bioavailability via subcutaneous or oral administration” value in data set [1] (mice, 24 mg/kg) is on record as “good”. In addition, the “Detection in the brain” value in data set [1] (mice, 24 mg/kg subcutaneous, intravenous or oral) is recorded as “could not be detected”.
With `CCC(NC(=O)[C@H](CC(C)C)NC(=O)OCc1ccccc1)C(=O)C(=O)NCCCn1cnc2c(N)ncnc21` (stereo partly drawn) [Compound 4a, 3-(Benzyloxycarbonyl-L-leucylamino)-N-(3-(6-amino-9H-purin-9-yl)propyl)-2-oxopentanamide], in data set [2] (8 hour, numeric value from one mouse, other two NQ), the “Concentration in the mouse brain” value was 1.17 ± 0.01 ^b µg/g tissue. The “Concentration observed in brain, in molar terms” value in data set [2] is given as “approximately 2 µM”.
For the compound `CCC(NC(=O)[C@H](CC(C)C)NC(=O)OCc1ccccc1)C(=O)C(=O)NCCCn1ccc(N)nc1=O` (stereo partly drawn) [Compound 4c], in data set [3], the “fold less potent than the adenine derivatives” value is reported as 3- to 8 fold.
With `CCC(NC(=O)[C@H](CC(C)C)NC(=O)OCc1ccccc1)C(=O)C(=O)NCCCN1CCN(C)CC1` (stereo partly drawn) [Compound 4d, 3-(Benzyloxycarbonyl-L-leucylamino)-N-(3-(4-methylpiperazin-1-yl)propyl)-2-oxopentanamide], the “Concentration in the mouse brain” value in data set [2] (1 hour) is “could be detected”; in data set [2] (2 hour, numeric value from one mouse, other two NQ), 1.14 ± 0.02 ^b µg/g tissue. The “Concentration observed in brain, in molar terms” value in data set [2] was “approximately 2 µM”.
On to `COc1nc(N)c2ncn(CCCNC(=O)C(=O)C(Cc3ccccc3)NC(=O)[C@H](CC(C)C)NC(=O)OCc3ccccc3)c2n1` (stereo partly drawn) [Compound 5b, 3-(Benzyloxycarbonyl-L-leucylamino)-N-(3-(6-amino-2-methoxy-9H-purin-9-yl)propyl)-2-oxophenylbutanamide], for which the “fold less potent on calpain II than on calpain I” value in data set [4] is listed as 5 fold.
Take `CC(C)C[C@H](NC(=O)OCc1ccccc1)C(=O)NC(Cc1ccccc1)C(=O)C(=O)NCCCn1ccc(N)nc1=O` (stereo partly drawn) [Compound 5c]: the “selectivity for calpain I and calpain II versus cathepsin B” value (“selectivity” below) in data set [5] is “equally potent”. Moreover, the “fold less potent than the adenine derivatives” value in data set [3] is 3- to 8 fold.
As to `CC(C)C[C@H](NC(=O)OCc1ccccc1)C(=O)NC(Cc1ccccc1)C(=O)C(=O)NCCCN1CCN(C)CC1` (stereo partly drawn) [Compound 5d, 3-(Benzyloxycarbonyl-L-leucylamino)-N-(3-(4-methylpiperazin-1-yl)propyl)-2-oxophenylbutanamide], the “selectivity” value in data set [5] is listed as “good selectivity”.
With `CC(C)C[C@H](NC(=O)OCc1ccccc1)C(=O)NC(Cc1ccccc1)C(=O)C(=O)NCCCN(C)C` (stereo partly drawn) [Compound 5e, 3-(Benzyloxycarbonyl-L-leucylamino)-N-(3-(dimethylamino)propyl)-2-oxophenylbutanamide], the “selectivity” value in data set [5] was “good selectivity”. For the same compound, the “fold less potent on calpain II than on calpain I” value in data set [4] came out at 3 fold.

The record behind these values is publication PMC2954059 (Journal of medicinal chemistry, 2010).
